Laboratory results: article PMC13168289, “Potent acridone antimalarial against all three life stages of Plasmodium” (Nature Communications, 2026)
Where two headings read alike, the source gives them in different places.

What was measured:
[1] = test system: P. falciparum mutant T111 lines; assay: drug susceptibility of T111-selected cyt b mutant lines; assay type: cell-based, Plasmodium falciparum
Method: DNA extractions were performed on clonal parasites using the QIAamp DNA extraction kit (QIAGEN Inc, Valencia, CA) or ZYMO Quick gDNA Miniprep kit (Zymo Research Corp, Irvine, CA). For sequencing of the open reading frame of pfcytb, PCR was performed with genomic DNA using forward and reverse flanking primers for cyt b primer 1: 5’-[…]-3’ and primer 2: 5’-[…]-3’. PCR products were subjected to enzymatic cleanup with ExoSAP-IT (Thermo Fisher Scientific) and sent for Sanger sequencing (Eurofins Genomics, Louisville, KY) with PCR primer 2 paired with an internal forward primer: 5’-[…]-3’ and an internal reverse primer: 5’-[…]-3’. Sequences were assembled using 4Peaks software (Nucleobytes, Amsterdam, Netherlands) and aligned with Clustal Omega (EMBL-EBI). For sequencing of the open reading frame of pfdhodh, PCR was performed with genomic DNA using forward primer: 5’-[…]-3’ and reverse primer: 5’-[…]-3’. PCR products were prepared for Sanger sequencing and analyzed as described above, except using two forward primers: 5’-[…]-3’ and 5’-[…]-3’ and with two reverse primers: 5’-[…]-3’ and 5’-[…]-3’.
(§1) Drug susceptibility assays against P. falciparum strains were performed using a SYBR Green based assay. D6 and Dd2 were obtained from MR4. Tm90-C2B was obtained from WRAIR. Dd2-D1^I22L and ELQ-300 were obtained from VAPORHCS. D10yDHODH was obtained as a courtesy from Dr. Akhil Vaidya at Drexel University. P. yoelii ATV^r and ELQ-300^r clones were obtained from VAPORHCS.

[2] = test system: P. yoelii wild type, ATV^r and ELQ-300^r clones; assay: 4-day suppression model with ATV- and ELQ-300-resistant clones; assay type: in vivo, P. yoelii in CF1 mice; conditions: (95% CI)
From the text: Animals were housed at the VAPORHCS in Thoren Maxi-Miser microisolator cages (78 sq. in. floor space) with a maximum density of five females or four males per cage. Cages were maintained on a 12-h light/dark cycle and provided with autoclaved nesting materials (nestlets) for environmental enrichment. All mice had ad libitum access to food and water. Four- to five-week-old female and male outbred CF1 mice (Charles River Laboratories, Raleigh, NC, USA) were randomly assigned to treatment and control groups using a simple randomization procedure (e.g., computer-generated random numbers) to ensure balanced distribution of baseline body weights and starting parasitemia levels across all cohorts. Groups of four mice (n = 4, mean body weight of each group was ~30 g) were infected intravenously with 3.5 × 10^4 P. yoelii (Kenya strain, MRA-428) from a donor animal. Drug administration commenced the day after the animals were inoculated (Day 1). The test drug or the drug combination was dissolved in PEG-400 and administered by oral gavage once daily for 4 successive days in the 4-day suppression model, but only once on Day 1 in the single-dose cure model. Blood was collected via the tail vein with the aid of a syringe needle on Day 5 and then at weekly intervals through Day 28. Blood films were Giemsa-stained and examined microscopically to determine the level of parasitemia. All mice were observed daily to assess clinical signs. Animals with observable parasitemia following the experiments were euthanized; animals cleared of parasitemia from their bloodstream were observed daily with assessment of parasitemia performed weekly until Day 28, at which point, the animal(s) were scored as cured of the infection and then humanely euthanized. All treated mice with a negative smear on Day 28 were considered cured (100% protection).
as §1

[3] = test system: P. falciparum D6, Dd2, Tm90-C2B, Dd2-D1^I22L, D10yDHODH; assay: microbe, parasite or virus in culture; assay type: cell-based, Plasmodium falciparum; conditions: read-out: in vitro IC50 vs P. falciparum
Method: as §1

[4] = test system: P. falciparum K13 mutant parasites SP045 and SP060; assay: Growth, Resistance, and Recovery Assay (GRRA), ring-stage survival dose-response; assay type: cell-based, Plasmodium falciparum; conditions: Plasmodium falciparum
Method: These isolates carry the validated R561H Kelch 13 propeller domain mutation associated with delayed parasite clearance in East Africa[24],[25]. Using the 6-hour GRRA[23], all strains were thawed, frozen, and cultured under standard conditions at 5% hematocrit. Samples parasitemia was measured by flow cytometry. Parasite cultures that were predominantly segmented schizonts were synchronized using a single Percoll layer method. Cultures that met quality control requirements of ≥70% early ring stage and ≥1% parasitemia were adjusted to 0.25% parasitemia at 2% hematocrit. […] The GRRA50 implements 11 RSA experiments to generate a dose-response curve for each parasite line per drug. Master mixes of samples were aliquoted into 2 technical replicates of 275 µL each in 96 well plates (2 treated each condition, 2 untreated). At 6 h post-exposure, 200 µL of media was removed from the wells and replaced with 200 µL of incomplete media and spun for 3 min at 800 g to rinse. The rinse was repeated a total of 3 times, after which 200 µL complete media was added back to the wells. At 120 h post-treatment, thin microscopy smears were made using 2 µL of culture for each sample and 20 µL of culture was transferred to PCR strips and stored at −80 °C until qPCR quantification. A standard curve of known parasitemia was generated using the NF54 parasite line for each qPCR quantification for conversion from Cycle threshold (Ct) to parasitemia and comparison between qPCR experiments. Replicate viability was calculated according to the GRRA method. Each individual reaction mixture and cycling conditions were set to previously used methods. Ct was calculated using AB1 SDA 2.4.1. software. […] We find that commonly reported thresholds (cutoffs) for resistance (e.g., 1% survival in traditional RSA) may not be broadly applicable, especially with lower thresholds subject to potential artifacts due to markedly low survival rates of ART-sensitive and low-level ART-resistant parasites. Regular RSA relies on a single drug concentration, 700 nM. To gain a more fine-scale quantification to compare drug susceptibilities with relevance to therapeutic success and failure, we developed the GRRA50 to generate full dose-response curves for precise quantitative comparisons.

[5] = cytotoxicity against HepG2 cells; assay type: cell-based; conditions: human, HepG2 cells; read-out: inhibition IC50 vs HepG2
Method: Cytotoxicity was evaluated in human HepG2 liver cells, using an MTT assay. Briefly, HepG2 cells were cultured in complete Dulbecco’s modified Eagle’s medium (DMEM; Gibco-Invitrogen, No. 11995-065) prepared by supplementing DMEM with 10% heat inactivated FBS (Gibco-Invitrogen, No. 16000-036), 100 units/mL penicillin, and 100 µg/mL streptomycin. Cell viability was assessed using trypan blue. Ninety-six-well plates were seeded with 2 × 10^4 cells per well and incubated at 37 °C overnight in a humidified 5% CO2 atmosphere. Test compound plates were prepared with an INTEGRA assist plus station and 96-well plates containing 11 duplicate 2-fold serial dilutions of test compound suspended in DMSO. The diluted test compound was then added to the corresponding well preseeded with HepG2 cells. […] After incubation, 20 µL of a 0.1 mg/mL solution of resazurin diluted in PBS was added to each well, and all plates were subsequently incubated for 3–4 h in an incubator. Absorbance was determined with the Molecular Devices SpectraMax plate reader. Three independent experiments, each in duplicate, were performed, and the IC50 values were determined using GraphPad Prism software (Version 10) using the non-linear regression equation (sigmoidal dose-response, variable slope).

[6] = Plasmodium falciparum, DD2, Supplementary Table 4, Dd2
[7] = Plasmodium falciparum, DD2, Supplementary Table 4, Dd2-A131S-140I-259L-264L
[8] = Plasmodium falciparum, DD2, Supplementary Table 4, Dd2-B131S-140I-259L-264L
[9] = Plasmodium falciparum, DD2, Supplementary Table 4, Dd2-D0119L-131S-259L (pfdhodh mutation)
[10] = Plasmodium falciparum, DD2, Supplementary Table 4, Dd2-D1131S-140I-259L (pfdhodh mutation)
[11] = Dd2-A^131S-140I-259L-264L, read-out: inhibition IC50 vs P. falciparum
[12] = Dd2-A^131S-140I-259L, read-out: inhibition IC50 vs P. falciparum
[13] = Dd2-B^87V-131S-140I-259L, read-out: inhibition IC50 vs P. falciparum
[14] = Dd2-B^131S-140I-259L-264L, read-out: inhibition IC50 vs P. falciparum
[15] = Dd2-C0^119L-131S-259L (pfdhodh mutation), read-out: inhibition IC50 vs P. falciparum
[16] = Dd2-C1^131S-140I-259L (pfdhodh mutation), read-out: inhibition IC50 vs P. falciparum
[17] = Dd2, read-out: inhibition IC50 vs P. falciparum
[18] = Dd2^131S-259L, read-out: inhibition IC50 vs P. falciparum
[19] = Dd2^131S, read-out: inhibition IC50 vs P. falciparum
[20] = Dd2^259L, read-out: inhibition IC50 vs P. falciparum

Compound | IC50 [1, 6] | IC50 [1, 7] | IC50 [1, 8] | IC50 [1, 9] | IC50 [1, 10] | IC50 [1, 11] | IC50 [1, 12] | IC50 [1, 13] | IC50 [1, 14] | IC50 [1, 15] | IC50 [1, 16] | IC50 [1, 17] | IC50 [1, 18] | IC50 [1, 19] | IC50 [1, 20] | also measured
Clc1ccc2c(N3CCN(CCCN4CCN(c5ccnc6cc(Cl)ccc56)CC4)CC3)ccnc2c1 [PIP, piperaquine] | 7.4 ± 0.57 nM | 9.9 ± 0.65 nM | 12 ± 2.3 nM | 11 ± 1.2 nM | 9.1 ± 1.7 nM | – | – | – | – | – | – | – | – | – | – | –
CCCCN(CCCC)CC(O)c1cc(Cl)cc2c1-c1ccc(Cl)cc1/C2=C/c1ccc(Cl)cc1 (stereo not drawn) [LUM, lumefantrine] | 1.2 ± 0.098 nM | 1.7 ± 0.086 nM | 1.7 ± 0.36 nM | 1.5 ± 0.11 nM | 2.4 ± 0.11 nM | – | – | – | – | – | – | – | – | – | – | –
Cc1cc(Nc2ccc(S(F)(F)(F)(F)F)cc2)n2nc(C(C)(F)F)nc2n1 [DSM265] | – | – | – | – | – | – | – | – | – | – | – | – | – | – | – | IC50 ([1]; Plasmodium falciparum, DD2, read-out: inhibition IC50 vs P. falciparum, Dd2): 3.2 ± 0.3 nM; IC50 ([1]; Plasmodium falciparum, DD2, read-out: inhibition IC50 vs P. falciparum, Dd2-A^131S-140I-259L): 3.2 ± 0.52 nM; IC50 ([1]; Plasmodium falciparum, DD2, read-out: inhibition IC50 vs P. falciparum, Dd2-A^131S-140I-259L-264L): 1.2 ± 0.075 nM; IC50 ([1]; Plasmodium falciparum, DD2, read-out: inhibition IC50 vs P. falciparum, Dd2-B^87V-131S-140I-259L): 3.5 ± 0.37 nM; IC50 ([1]; Plasmodium falciparum, DD2, read-out: inhibition IC50 vs P. falciparum, Dd2-B^131S-140I-259L-264L): 2.8 ± 0.3 nM; IC50 ([1]; Plasmodium falciparum, DD2, read-out: inhibition IC50 vs P. falciparum, Dd2-C0^119L-131S-259L (pfdhodh mutation)): 795 ± 235 nM; IC50 ([1]; Plasmodium falciparum, DD2, read-out: inhibition IC50 vs P. falciparum, Dd2-C1^131S-140I-259L (pfdhodh mutation)): 563 ± 203 nM; IC50 ([1]; Plasmodium falciparum, DD2, read-out: inhibition IC50 vs P. falciparum, Dd2^131S): 1.9 ± 0.22 nM; IC50 ([1]; Plasmodium falciparum, DD2, read-out: inhibition IC50 vs P. falciparum, Dd2^131S-259L): 2.8 ± 1.2 nM; IC50 ([1]; Plasmodium falciparum, DD2, read-out: inhibition IC50 vs P. falciparum, Dd2^259L): 3.3 ± 1 nM
COc1cc2[nH]c(C)c(-c3ccc(Oc4ccc(OC(F)(F)F)cc4)cc3)c(=O)c2cc1Cl [ELQ-300] | – | – | – | – | – | 35 ± 3.2 nM | 52 ± 5.5 nM | 67 ± 4.6 nM | 25 ± 2.7 nM | 221 ± 50 nM | 225 ± 73 nM | 38 ± 5 nM | 26 ± 5.2 nM | 20 ± 5.8 nM | 23 ± 4.3 nM | ED50 ([2]; P. yoelii ATVrY268S): 0.040 (0.036–0.044) mg/kg/day; ED50 ([2]; P. yoelii ELQ-300rI22L): 1.27 (0.97–1.67) mg/kg/day; ED50 ([2]; P. yoelii wild type): 0.031 (0.029–0.033) mg/kg/day; IC50 ([3]; D6): 3.5 ± 0.23 nM; IC50 ([3]; D10yDHODH): > 2500 nM; IC50 ([3]; Dd2-D1^I22L (ELQ-300-resistant)): 245 ± 27 nM; IC50 ([3]; Dd2): 3.1 ± 0.15 nM; IC50 ([3]; Tm90-C2B (cyt b Y268S, ATV-resistant)): 1.3 ± 0.084 nM
C[C@H]1[C@@H](O)O[C@@H]2O[C@@]3(C)CC[C@H]4[C@H](C)CC[C@@H]1[C@@]24OO3 [DHA, dihydroartemisinin] | 1.7 ± 0.14 nM | 2.3 ± 0.25 nM | 2.3 ± 0.18 nM | 2.2 ± 0.18 nM | 2.4 ± 0.2 nM | – | – | – | – | – | – | – | – | – | – | IC50 ([4]; read-out: GRRA50, SP045 (K13 V555A, ART-S)): 7.7 nM; IC50 ([4]; read-out: GRRA50, SP060 (K13 R561H, ART-R)): 25 nM
CO/C(=C/C(N)=O)[C@H](C)[C@H](/C=C/c1csc(-c2csc([C@@H](C)/C=C/C=C/C(C)C)n2)n1)OC [MYX, myxothiazol] | – | – | – | – | – | 16 ± 4.1 nM | 192 ± 11 nM | 373 ± 11 nM | 34 ± 3.3 nM | 1540 ± 110 nM | 723 ± 141 nM | 24 ± 3.4 nM | 975 ± 139 nM | 383 ± 38 nM | 64 ± 13 nM | –
ELQ-400 | – | – | – | – | – | 80 ± 15 nM | 133 ± 17 nM | 177 ± 3.1 nM | 126 ± 32 nM | 255 ± 62 nM | 501 ± 101 nM | 4 ± 0.45 nM | 28 ± 13 nM | 4.2 ± 0.41 nM | 24 ± 6.7 nM | –
OC(c1cc(C(F)(F)F)nc2c(C(F)(F)F)cccc12)C1CCCCN1 (stereo not drawn) [mefloquine] | – | – | – | – | – | – | – | – | – | – | – | – | – | – | – | IC50 at 24 h [5]: 4940 nM
